From PMC7662393, “Comprehensive Characterization of Linalool-HP-β-Cyclodextrin Inclusion Complexes” (Molecules, 2020)
≈ marks a conversion by molar mass, not a printed value. Like-named read-outs stand apart in the source and are kept apart here.

Experiments:
[1] = parameters: method as in PMID 25298799; conditions: RAMEB; cited from earlier work
[2] = parameters: method as in PMID 25298799; conditions: CRYSMEB; cited from earlier work
[3] = parameters: method as in PMID 25298799; conditions: HP-β-CDs; cited from earlier work
[4] = parameters: method as in doi:10.1002/ffj.3197; conditions: JECFA (FAO/WHO); cited from earlier work
[5] = Phase solubility of linalool with HP-β-CDs by microwave irradiation (MWI); format: physicochemical; conditions: pH 7.0
Procedure: The encapsulation of linalool with HP-β-CDs by using MWI was carried out following the method described by Hernández-Sánchez et al. in 2017 [32]. Aqueous solutions of HP-β-CDs (100 mL, 0–100 mmol L^−1) were irradiated with microwave (LG Grill Wavedom, LG Electronics Las Rozas, Spain), at 700 W for 30 s, at 10 s intervals, until reaching a temperature of 70 °C in the solution. Later on, linalool was added to each aqueous solution, in a molar ratio of 1:1 and then, were irradiated again for 30 s at 10 s intervals, until reaching again 70 °C. Subsequently, the samples were shaken and kept for 12 h in dark sealed vials at 25 °C, before dividing them into two groups. After that, the first group, named 24 h MWI, was filtered using 0.45 µm nylon membrane filter (Chromafil, Macherey-Nagel). The second group, named 48 h MWI, were irradiated again, until reaching 70 °C, and maintain 12 h in the dark before they were filtered through a 0.45 µm nylon filter to remove linalool excess. Once filtered, both groups of samples were diluted with ethanol (20:80, v:v) until the GC-MS quantification of the linalool. All measurements were made in triplicate.
(§1) The quantification of linalool was carried out by using a Shimadzu GC-QP 2010 (Kyoto, Japan) gas chromatographer combined with a mass spectrometer. Helium was used as carrier gas, at a flow rate of 0.5 mL min^−1. A ω-WAX 250 fused silica supelco column (30 m × 0.25 mm × 0.25 µm thickness), was used. The temperature conditions were as follows: initial temperature at 70 °C, raised to 160 °C at 4 °C min^−1, raised to 280 °C at 30 °C min^−1, and maintained finally at 280 °C for 6 min. Injector temperature was 250 °C and injector mode was Split 1:20.
(§2) The peak area of each sample was used for linalool quantification (mmol L^−1), by interpolating in the calibration curve obtained using a standard of linalool, defined by equation: Area = […] [linalool (mmol L^−1)] and (R^2 = 0.9989) for linalool concentration from 0.0 to 0.5 mmol L^−1.

[6] = Phase solubility study of linalool complexation with HP-β-CDs (ultrasound); format: physicochemical
Procedure: (§3) The study of linalool solubility in the presence of CDs was carried out according to the method described by Higuchi and Connors in 1965 with slight modifications. CDs were dissolved in buffered solutions at different pHs: 3.5, 5.5 (100 mmol L^−1 sodium acetate buffer), 6.5, 7.0 (100 mmol L^−1 sodium phosphate buffer) and 8.5 (100 mmol L^−1 sodium borate buffer). The α- and HP-β-CDs were prepared up to 100 mmol L^−1. However, β-CDs were prepared up to 15 mmol L^−1, since this is their limit of aqueous solubility.
(§4) A saturating concentration of linalool was added to each CDs solution and they were kept in an ultrasound bath for 60 min in the dark, at 25 °C, until equilibrium was reached. Subsequently, the solutions were filtered through a 0.45 µm nylon membrane filter (Chromafil, Macherey-Nagel, Düren, Germany) to remove excess linalool.
(§5) Once filtered, the solutions were diluted with ethanol until reach ethanol 80% (solution:ethanol, 20:80, v:v) to quantify by gas chromatography-mass spectrometry (GC-MS) the linalool concentration in each solution. Phase solubility diagrams were made in triplicate.
as §1, §2
(§6) Kc between linalool and CDs was calculated from the slope of the phase solubility profile and the solubility of linalool in aqueous solution (S0) by using Equation (1):(1) Kc (Lmol^−1)=slope/S0(1−slope)
(§7) CE is the ratio between dissolved complex and free CDs concentration. […] was calculated by using Equation (2):(2) CE=[disolved−complex]/[CDs]=S0∗Kc
(§8) The molar ratio (MR) linalool:CDs, was calculated using CE values with Equation (3). (3) linalool:CDs=1:(1+1/CE)

[7] = Phase solubility study of linalool complexation with β-CDs; format: physicochemical
Procedure: as §3, §4, §5, §1, §2, §6, §7, §8

[8] = Phase solubility study of linalool complexation with α-CDs; format: physicochemical
Procedure: as §3, §4, §5, §1, §2, §6, §7, §8

[9] = hydroxyl group at C3; no reference or method printed; cited from earlier work
[10] = Aqueous solubility of linalool (S0) from phase solubility study, ultrasound equilibrium; format: physicochemical; conditions: for solubility at 60 min: read-out: Recovery aqueous solubility (S0)
Procedure: as §3, §4, §5, §1, §2

Question: For `O=C(O)/C=C/c1ccc(O)cc1` [coumaric acid], which “Complexation efficiency (CE)” value [1] is on record?
Answer: The value was 2.57.

Question: And the “Complexation efficiency (CE)” value [2]?
Answer: Its value is 1.89.

Question: What about the “Complexation efficiency (CE)” value [3] of the same compound?
Answer: Its value is 2.30.

Question: For `C=CCc1ccc(O)c(OC)c1` [eugenol], which “Complexation efficiency (CE)” value [3] is on record?
Answer: The value was 2.81.

Question: With `COc1cc(/C=C/C(=O)O)ccc1O` [ferulic acid] as the compound, how does the “Complexation efficiency (CE)” value [1] read?
Answer: Its value is 1.79.

Question: Which results are given for `C=CC(C)(O)CCC=C(C)C` (stereo not drawn) [linalool, 3,7-dimethyl-1,6-octadien-3-ol]?
Answer: Allowable daily intake (ADI) [4]: 0–0.5 mg kg^−1 of body weight/day; Linalool concentration solved ([5]; 100 mM HP-β-CDs, MWI): 13.61 mM; Increase in solubility of linalool ([5]; HP-β-CDs, MWI as energy source, volume 100 mL): 18.2 fold; solubility thermodynamic ([5]; aqueous solution without HP-β-CDs (S0), 25 °C, water, thermodynamic from solid, MWI): 0.75 mM (≈ 116 µg/mL); Linalool concentration solved ([6]; 100 mM HP-β-CDs, US, pH 7.0): 96.72 mM; Linalool concentration solved, US relative to MWI ([6]; 100 mM HP-β-CDs, pH 7.0): 7 fold; Increase in solubility of linalool ([6]; HP-β-CDs, US as energy source, volume 100 mL, pH 7.0): 13.1 fold; Complexation efficiency (CE) ([6]; HP-β-CDs, pH 3.5): 0.411; Complexation constant (KC) ([6]; HP-β-CDs, pH 3.5, 25 °C): 44 ± 6 L/mol; Complexation efficiency (CE) ([6]; HP-β-CDs, pH 5.5): 0.443; Complexation constant (KC) ([6]; HP-β-CDs, pH 5.5, 25 °C): 49 ± 7 L/mol; Complexation efficiency (CE) ([6]; HP-β-CDs, pH 6.5): 1.836; Complexation constant (KC) ([6]; HP-β-CDs, pH 6.5, 25 °C): 225 ± 14 L/mol; Complexation efficiency (CE) ([6]; HP-β-CDs, pH 7.0): 6.788; Complexation constant (KC) ([6]; HP-β-CDs, pH 7.0, 25 °C): 921 ± 21 L/mol; Complexation efficiency (CE) ([6]; HP-β-CDs, pH 8.5): 5.215; Complexation constant (KC) ([6]; HP-β-CDs, pH 8.5, 25 °C): 559 ± 17 L/mol; KC value for HP-β-CDs relative to that for β-CDs ([6]; neutral pH): 4 fold; Complexation efficiency (CE) ([7]; pH 3.5): 0.261; Complexation constant (KC) ([7]; pH 3.5, 25 °C): 28 ± 4 L/mol; Complexation efficiency (CE) ([7]; pH 5.5): 0.670; Complexation constant (KC) ([7]; pH 5.5, 25 °C): 74 ± 5 L/mol; Complexation efficiency (CE) ([7]; pH 6.5): 0.743; Complexation constant (KC) ([7]; pH 6.5, 25 °C): 91 ± 4 L/mol; Complexation efficiency (CE) ([7]; pH 7.0): 1.776; Complexation constant (KC) ([7]; pH 7.0, 25 °C): 241 ± 26 L/mol; Complexation efficiency (CE) ([7]; pH 8.5): 0.149; Complexation constant (KC) ([7]; pH 8.5, 25 °C): 16 ± 5 L/mol; Complexation efficiency (CE) ([8]; pH 3.5): 0.159; Complexation constant (KC) ([8]; pH 3.5, 25 °C): 17 ± 6 L/mol; Complexation efficiency (CE) ([8]; pH 5.5): 0.226; Complexation constant (KC) ([8]; pH 5.5, 25 °C): 25 ± 4 L/mol; Complexation efficiency (CE) ([8]; pH 6.5): 0.987; Complexation constant (KC) ([8]; pH 6.5, 25 °C): 121 ± 9 L/mol; Complexation efficiency (CE) ([8]; pH 7.0): 1.090; Complexation constant (KC) ([8]; pH 7.0, 25 °C): 148 ± 12 L/mol; Complexation efficiency (CE) ([8]; pH 8.5): 0.979; Complexation constant (KC) ([8]; pH 8.5, 25 °C): 105 ± 8 L/mol; pKa [9]: 18.46; solubility at 60 min ([10]; aqueous buffer, thermodynamic from solid, pH 6.5, 25 °C): 8.16 ± 0.11 mM (≈ 1260 µg/mL); solubility at 60 min ([10]; aqueous buffer, thermodynamic from solid, pH 7.0, 25 °C): 7.37 mM (≈ 1140 µg/mL); Recovery aqueous solubility (S0) ([10]; pH 3.5, 25 °C): 9.34 ± 0.20 mM; solubility at 60 min ([10]; pH 5.5, 25 °C): 9.05 ± 0.16 mM (≈ 1400 µg/mL); Recovery aqueous solubility (S0) ([10]; pH 7.0, 25 °C): 7.37 ± 0.03 mM; solubility at 60 min ([10]; pH 8.5, 25 °C): 9.33 ± 0.13 mM (≈ 1440 µg/mL); solubility at 60 min ([10]; sodium acetate buffer, pH 3.5, 25 °C): 9.34 mM (≈ 1440 µg/mL)
